Assay results: PubChem BioAssay (NCI)
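Cells were grown in 96-well plates and exposed to each compound for 48 hours at five concentrations; endpoints were interpolated linearly between bracketing concentrations, or set to the highest concentration if not reached. The concentration for full growth arrest is given as TGI.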

Key:
Test in all cases: inhibition of tumour cell growth, NCI panel, 48 h
[1] = tested on: HOP-92 NSCLC
[2] = tested on: U251 CNS
[3] = tested on: CAKI-1 renal
[4] = tested on: CCRF-CEM leukemia
[5] = tested on: MDA-MB-231 breast
[6] = tested on: SK-MEL-28 melanoma
[7] = tested on: HS 578T breast
[8] = tested on: 786-0 renal
[9] = tested on: RPMI-8226 leukemia
[10] = tested on: SNB-75 CNS

Row | SMILES | TGI [1] [µM] | TGI [2] [µM] | TGI [3] [µM] | TGI [4] [µM] | TGI [5] [µM] | TGI [6] [µM] | TGI [7] [µM] | TGI [8] [µM] | TGI [9] [µM] | TGI [10] [µM]
1 | COC(=O)C(Cc1ccccc1)NC(=O)CNC(=O)CSc1nnc(COc2ccc(Cl)cc2)n1-c1ccccc1 (stereo not given) | 35.3 | 32.8 | 25.3 | 7.42 | 32.7 | 34.6 | 70.4 | 30.5 | 21.8 | 37.1
2 | COC(=O)/C=C1/OC(c2ccccc2)=C(Cl)C1=O | 42.7 | 27.1 | 32.7 | 19.9 | 36 | 42.5 | 66.8 | 33.7 | 22.5 | 48.5
3 | NC1CCC(c2cc3ccccc3s2)(N2CCCCC2)CC1 (stereo not given) | 5.15 | 3.05 | 10.1 | 2.45 | 12.9 | 3.11 | 20.5 | 2.83 | 2.28 | 25.2
4 | COc1ccc(CNc2nc3ccccc3nc2-c2cccs2)cc1 | > 100 | > 100 | 46.3 | > 100 | > 100 | > 100 | 99.8 | > 100 | > 100 | > 100
5 | CN(C)Cc1cc(N=Nc2ccc(Cl)c(Cl)c2)ccc1O | 22.3 | 23.6 | 25.4 | 20 | 18.2 | 26.5 | 21.9 | 24.2 | 38.8 | 20.3
6 | CC1=Nn2c(nc3sc4c(c3c2=O)CCCC4)SC1 | > 100 | > 100 | > 100 | > 76.3 | > 100 | > 100 | > 100 | > 100 | > 100 | > 100
7 | CC(=O)Nc1ccc(Nc2nc(=O)[nH]c(=O)[nH]2)cc1 | > 100 | > 100 | > 100 | > 100 | > 100 | > 100 | > 100 | > 100 | > 100 | > 100
8 | COc1cccc(C2c3cc4c(cc3OC(N3CCOCC3)C2C)OCO4)c1O (stereo not given) | 71.4 | 12.7 | 18.6 | 35.3 | 47.5 | > 61.8 | 6.39 | 53.6 | 19.8 | > 100
9 | O=C(CSc1nc2ccc(I)cc2c(=O)n1Cc1ccccc1)Nc1ccc(Br)cc1 | > 100 | > 100 | 20.2 | > 100 | 89.7 | > 100 | 62.7 | > 100 | > 100 | 36.6
10 | c1ccc2c(c1)SC1Sc3ccccc3[S+]21 (stereo not given) | 69.9 | 45.5 | 44.8 | 49.6 | 80.3 | 41.4 | > 100 | > 62.4 | 49.9 | > 100
11 | NC(=O)c1ccccc1NC(=O)C(=O)C(c1cnc2ccc([N+](=O)[O-])cc2n1)[N+](=O)[O-] (stereo not given) | > 100 | > 100 | > 100 | > 100 | > 100 | > 100 | > 100 | > 100 | > 100 | > 100
12 | Cn1c(N/N=C/c2ccc(Cl)cc2)nc(-c2ccc(Cl)cc2)c(C#N)c1=O | 57.7 | 72.1 | > 100 | > 100 | 48.8 | > 100 | 86.4 | 29.8 | > 100 | 73.2
13 | c1ccc(N=NNNc2ccc(-c3nc4ccccc4[nH]3)cc2)cc1 | > 100 | > 100 | > 100 | 56.1 | > 100 | > 100 | 89.1 | > 100 | 42.4 | 88.7
14 | CCN(CC)CCNc1ccc(N=Nc2ccc(S(N)(=O)=O)cc2)c2ccccc12 | 35.9 | > 100 | 31.2 | 38.3 | 27.8 | 28.1 | 55.9 | > 100 | 18.7 | 27
15 | CCN(CC)C(=O)CCCCCCCCC1CO1 (stereo not given) | > 100 | > 100 | > 100 | > 100 | > 100 | > 100 | > 100 | > 100 | > 100 | > 100
